For experiment [1], the target named is T1, USP1 alone (Homo sapiens, UniProt O94782).
T1 sequence (O94782 1-785): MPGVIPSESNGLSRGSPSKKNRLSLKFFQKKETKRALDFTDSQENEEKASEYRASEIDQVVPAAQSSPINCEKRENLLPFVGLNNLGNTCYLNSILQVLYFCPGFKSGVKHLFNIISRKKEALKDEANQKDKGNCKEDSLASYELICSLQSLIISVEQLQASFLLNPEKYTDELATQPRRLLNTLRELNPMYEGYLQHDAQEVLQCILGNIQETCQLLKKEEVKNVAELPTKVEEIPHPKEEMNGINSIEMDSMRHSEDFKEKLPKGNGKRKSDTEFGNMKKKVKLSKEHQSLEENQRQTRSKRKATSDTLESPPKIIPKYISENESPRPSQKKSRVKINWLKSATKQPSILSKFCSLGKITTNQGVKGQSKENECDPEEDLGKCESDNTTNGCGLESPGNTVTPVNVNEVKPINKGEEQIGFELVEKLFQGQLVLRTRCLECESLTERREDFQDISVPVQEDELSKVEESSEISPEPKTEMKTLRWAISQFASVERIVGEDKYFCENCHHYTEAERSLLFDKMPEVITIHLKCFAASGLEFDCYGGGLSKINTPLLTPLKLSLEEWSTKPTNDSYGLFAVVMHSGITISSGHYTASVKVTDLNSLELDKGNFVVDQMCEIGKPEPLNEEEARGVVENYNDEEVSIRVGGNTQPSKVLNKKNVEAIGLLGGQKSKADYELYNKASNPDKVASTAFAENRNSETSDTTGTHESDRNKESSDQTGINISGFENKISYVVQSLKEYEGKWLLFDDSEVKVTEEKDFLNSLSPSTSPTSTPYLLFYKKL
Description: Ub-Rho assay, USP1 alone. It is filed as biochemical. The conditions noted are these: Ub-Rho substrate, absence of UAF1 subunit.

Experiment [2] addresses T2, UCH-L1 (Homo sapiens, UniProt P09936).
T2 sequence (P09936 1-223): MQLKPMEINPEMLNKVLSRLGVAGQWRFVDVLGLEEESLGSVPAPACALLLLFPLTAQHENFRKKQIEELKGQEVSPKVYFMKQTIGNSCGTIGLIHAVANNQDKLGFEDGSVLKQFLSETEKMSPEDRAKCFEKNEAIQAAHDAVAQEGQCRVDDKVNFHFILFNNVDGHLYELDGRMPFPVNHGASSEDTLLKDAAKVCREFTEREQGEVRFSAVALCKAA
The experiment can be described thus: Ub-Rho assay, UCH-L1. The class given is biochemical.

The target of experiment [3] is T3, SENP1 (Homo sapiens, UniProt Q9P0U3).
T3 sequence (Q9P0U3 1-644): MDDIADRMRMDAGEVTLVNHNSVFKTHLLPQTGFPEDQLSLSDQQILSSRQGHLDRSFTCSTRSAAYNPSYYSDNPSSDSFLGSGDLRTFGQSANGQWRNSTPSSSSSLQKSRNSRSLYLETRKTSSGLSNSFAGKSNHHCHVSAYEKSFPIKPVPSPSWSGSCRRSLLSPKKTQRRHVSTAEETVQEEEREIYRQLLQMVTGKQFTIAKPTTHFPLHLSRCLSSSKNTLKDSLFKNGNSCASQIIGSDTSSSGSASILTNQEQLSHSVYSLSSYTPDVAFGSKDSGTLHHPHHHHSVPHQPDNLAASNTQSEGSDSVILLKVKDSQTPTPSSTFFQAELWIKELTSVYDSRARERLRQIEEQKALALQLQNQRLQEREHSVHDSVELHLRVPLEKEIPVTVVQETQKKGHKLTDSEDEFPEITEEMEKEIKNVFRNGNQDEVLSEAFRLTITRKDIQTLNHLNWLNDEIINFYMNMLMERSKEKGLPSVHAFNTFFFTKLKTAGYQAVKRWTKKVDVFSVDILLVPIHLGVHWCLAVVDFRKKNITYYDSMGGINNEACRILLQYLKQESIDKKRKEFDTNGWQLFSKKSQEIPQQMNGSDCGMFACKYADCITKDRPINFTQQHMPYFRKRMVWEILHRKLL
Description: SUMO1-AMC assay, SENP1. It is filed as biochemical. Particulars: SUMO1-AMC substrate.

In experiment [4] the target is USP7 (Homo sapiens, UniProt Q93009). The experiment can be described thus: K63-linked diubiquitin cleavage assay, USP7. The conditions noted are these: for IC50 for USP7, fold higher than that for USP1/UAF1: K63-linked diubiquitin substrate.
Experiment [5] addresses T4, USP8 (Homo sapiens, UniProt P40818).
T4 sequence (P40818 1-1118): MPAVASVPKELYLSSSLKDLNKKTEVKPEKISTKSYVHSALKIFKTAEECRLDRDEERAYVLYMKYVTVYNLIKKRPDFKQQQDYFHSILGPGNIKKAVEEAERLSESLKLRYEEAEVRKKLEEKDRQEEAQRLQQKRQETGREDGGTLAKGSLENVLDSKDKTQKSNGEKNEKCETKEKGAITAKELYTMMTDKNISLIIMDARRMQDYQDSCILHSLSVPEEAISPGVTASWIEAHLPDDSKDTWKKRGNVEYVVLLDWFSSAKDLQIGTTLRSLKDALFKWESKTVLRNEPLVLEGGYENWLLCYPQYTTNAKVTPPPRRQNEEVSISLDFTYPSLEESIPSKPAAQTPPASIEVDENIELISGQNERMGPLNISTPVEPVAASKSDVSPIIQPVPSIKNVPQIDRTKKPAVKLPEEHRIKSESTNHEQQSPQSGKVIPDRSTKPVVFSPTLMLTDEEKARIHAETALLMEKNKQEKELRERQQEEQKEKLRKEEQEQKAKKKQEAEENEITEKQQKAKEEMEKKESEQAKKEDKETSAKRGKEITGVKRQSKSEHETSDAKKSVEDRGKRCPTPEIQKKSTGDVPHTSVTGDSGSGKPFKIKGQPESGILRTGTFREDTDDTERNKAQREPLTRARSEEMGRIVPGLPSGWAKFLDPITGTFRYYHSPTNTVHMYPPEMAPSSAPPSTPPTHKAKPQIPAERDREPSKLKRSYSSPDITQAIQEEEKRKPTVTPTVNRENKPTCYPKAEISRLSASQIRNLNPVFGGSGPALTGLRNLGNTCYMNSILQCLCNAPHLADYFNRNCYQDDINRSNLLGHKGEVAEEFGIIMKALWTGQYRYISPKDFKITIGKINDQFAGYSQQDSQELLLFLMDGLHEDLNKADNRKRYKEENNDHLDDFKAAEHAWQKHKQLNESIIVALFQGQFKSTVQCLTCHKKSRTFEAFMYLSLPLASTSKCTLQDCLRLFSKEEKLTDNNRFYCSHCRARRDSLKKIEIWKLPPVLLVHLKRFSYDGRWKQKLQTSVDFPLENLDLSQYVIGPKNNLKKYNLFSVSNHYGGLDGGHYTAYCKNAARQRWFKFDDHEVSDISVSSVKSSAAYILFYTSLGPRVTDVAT
Description: K63-linked diubiquitin cleavage assay, USP8. Particulars: for IC50 USP8: K63-linked diubiquitin substrate, NI = no significant inhibition at 114 μM.

The target in experiment [6] is USP1/UAF1 (Homo sapiens, UniProt O94782+Q8TAF3). The experiment can be described thus: reversibility of inhibition by rapid dilution. The conditions noted are these: incubation at 10 times IC50, 100-fold rapid dilution.

This is an account of results in article PMC3344384 (Chemistry & biology, 2011).

Sequence of USP7 (Q93009 whole entry): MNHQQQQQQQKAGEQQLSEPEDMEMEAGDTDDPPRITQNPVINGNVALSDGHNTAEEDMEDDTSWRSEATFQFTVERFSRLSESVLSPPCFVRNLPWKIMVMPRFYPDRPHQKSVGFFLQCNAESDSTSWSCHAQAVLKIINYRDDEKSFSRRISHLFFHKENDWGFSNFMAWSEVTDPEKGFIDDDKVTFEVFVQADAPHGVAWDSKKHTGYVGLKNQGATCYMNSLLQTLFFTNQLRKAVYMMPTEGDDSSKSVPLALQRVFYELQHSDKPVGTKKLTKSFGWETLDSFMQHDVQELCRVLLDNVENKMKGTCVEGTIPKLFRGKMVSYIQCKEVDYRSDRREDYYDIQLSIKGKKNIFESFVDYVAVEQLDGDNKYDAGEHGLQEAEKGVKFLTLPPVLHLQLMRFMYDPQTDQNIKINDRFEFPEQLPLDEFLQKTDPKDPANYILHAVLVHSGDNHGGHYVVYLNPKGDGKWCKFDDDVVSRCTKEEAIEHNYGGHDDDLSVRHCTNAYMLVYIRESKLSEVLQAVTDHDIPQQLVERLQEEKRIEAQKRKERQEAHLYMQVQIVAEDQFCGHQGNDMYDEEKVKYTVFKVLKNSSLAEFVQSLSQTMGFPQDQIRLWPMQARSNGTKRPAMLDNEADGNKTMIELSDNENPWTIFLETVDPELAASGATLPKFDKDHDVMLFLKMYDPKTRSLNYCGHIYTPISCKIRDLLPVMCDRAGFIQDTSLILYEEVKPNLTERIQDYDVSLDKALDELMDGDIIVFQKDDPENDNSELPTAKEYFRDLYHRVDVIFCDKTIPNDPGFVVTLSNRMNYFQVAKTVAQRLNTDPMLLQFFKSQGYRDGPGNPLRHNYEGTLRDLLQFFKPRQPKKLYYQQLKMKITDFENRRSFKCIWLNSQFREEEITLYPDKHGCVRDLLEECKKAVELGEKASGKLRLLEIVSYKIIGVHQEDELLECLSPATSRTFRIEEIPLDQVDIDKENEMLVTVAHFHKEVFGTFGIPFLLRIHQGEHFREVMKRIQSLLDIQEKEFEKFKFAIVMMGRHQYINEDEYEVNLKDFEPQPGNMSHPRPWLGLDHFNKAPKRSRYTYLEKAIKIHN
Sequence of USP1/UAF1 (Q8TAF3 whole entry, one chain of several): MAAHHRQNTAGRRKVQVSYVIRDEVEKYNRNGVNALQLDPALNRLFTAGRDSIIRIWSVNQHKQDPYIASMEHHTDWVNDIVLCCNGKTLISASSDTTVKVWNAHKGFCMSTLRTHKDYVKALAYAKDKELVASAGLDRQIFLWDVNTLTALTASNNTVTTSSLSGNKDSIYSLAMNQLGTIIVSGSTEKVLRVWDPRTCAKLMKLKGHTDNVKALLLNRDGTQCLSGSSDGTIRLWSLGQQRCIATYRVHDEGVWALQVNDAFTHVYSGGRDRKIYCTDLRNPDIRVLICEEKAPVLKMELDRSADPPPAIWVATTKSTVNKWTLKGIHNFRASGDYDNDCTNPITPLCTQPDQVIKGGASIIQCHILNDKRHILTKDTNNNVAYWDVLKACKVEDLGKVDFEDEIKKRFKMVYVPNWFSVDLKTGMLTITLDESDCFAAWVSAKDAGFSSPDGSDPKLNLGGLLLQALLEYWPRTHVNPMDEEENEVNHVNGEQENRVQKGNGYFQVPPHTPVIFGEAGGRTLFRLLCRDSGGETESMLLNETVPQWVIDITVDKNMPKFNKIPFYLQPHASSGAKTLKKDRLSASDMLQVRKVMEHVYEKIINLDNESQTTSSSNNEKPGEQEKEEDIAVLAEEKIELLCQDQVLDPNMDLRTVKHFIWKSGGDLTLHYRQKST

By IC50 is commonly meant the point on the concentration scale where inhibition reaches its midpoint. Read a high IC50 as weaker potency. For `O=c1[nH]c2ccccc2n1C1CCN(CCCC(c2ccc(F)cc2)c2ccc(F)cc2)CC1` [Pimozide, pimozide], the “inhibition of USP1 alone” value in experiment [1] is reported as “low level of inhibition”. The IC50 in experiment [2] was more than 500 µM. The “inhibition of SENP1” value in experiment [3] was “low level of inhibition”. Further, in experiment [4], the IC50 was found to be 47 ± 1 µM and the “IC50 for USP7, fold higher than that for USP1/UAF1” value came to 24 fold. For the same molecule, the “IC50 USP8” value in experiment [5] was “No inhibition”. In addition, the reversibility of inhibition result in experiment [6] was “largely reversible inhibitors”.
Turning to `OCCN1CCN(CCC=C2c3ccccc3Sc3ccc(C(F)(F)F)cc32)CC1` [Flupenthixol, flupenthixol], in experiment [1], the “inhibition of USP1 alone” value was “low level of inhibition”. Besides, the values for the IC50 in experiment [2], in experiment [4] and in experiment [5] were more than 500 µM, 13 ± 1 µM and more than 114 µM, respectively. The “inhibition of SENP1” value in experiment [3] is “low level of inhibition”. Further, the reversibility of inhibition entry in experiment [6] is recorded as “largely reversible inhibitors”.
For the molecule `CC(C)(Sc1ccc(CCN(CCCCC2CCCCC2)C(=O)NC2CCCCC2)cc1)C(=O)O` [GW7647], the “inhibition of USP1 alone” value in experiment [1] is given as “low level of inhibition”. The molecule further registered an IC50 in experiment [2] of more than 200 µM. Besides, the “inhibition of SENP1” value in experiment [3] is reported as “low level of inhibition”. In experiment [4], 44 ± 2 µM corresponded to half-maximal inhibition (IC50) and the “IC50 for USP7, fold higher than that for USP1/UAF1” value came out at 9 fold. In addition, the “IC50 USP8” value in experiment [5] is given as “did not inhibit”. The reversibility of inhibition result in experiment [6] is “largely reversible inhibitors”.
Regarding `CN1CCN(CCCN2c3ccccc3Sc3ccc(C(F)(F)F)cc32)CC1` [Trifluoperazine, trifluoperazine], the “inhibition of USP1 alone” value in experiment [1] was “low level of inhibition”. The IC50 is more than 500 µM in experiment [2] and 9 ± 1 µM in experiment [4]. The “inhibition of SENP1” value in experiment [3] is listed as “low level of inhibition”. The reversibility of inhibition result in experiment [6] is recorded as “largely reversible inhibitors”.
